Reference: patent US6706740B2, “Fungicidal heterocyclic aromatic amides and their compositions, methods of use and preparation” (Dow AgroSciences LLC, priority 1999, dated 2004)
Like-named read-outs stand apart in the source and are kept apart here.

Experiments:
[1] = test system: Mycosphaerella graminicola (Septoria tritici—SEPTTR); test: In vitro fungal growth inhibition, Mycosphaerella graminicola (SEPTTR); format: cell-based; conditions: Zymoseptoria tritici, read-out: SEPTTR in vitro Growth Inhibition
[2] = test system: Leptosphaeria nodorum—LEPTNO; test: Glume Blotch of Wheat, in vivo whole plant, 24 Hour Protectant; conditions: Leptosphaeria, read-out: LEPTNO in vivo 1 Day Protectant
Erysiphe graminis—ERYSGT = test: Powdery Mildew of Wheat, in vivo whole plant, 24 Hour Protectant; conditions: Erysiphe, read-out: ERYSGT in vivo 1 Day Protectant
[3] = test system: Stagonospora nodorum (Leptosphaeria nodorum—LEPTNO); test: In vitro fungal growth inhibition, Stagonospora nodorum (LEPTNO); format: cell-based; conditions: Leptosphaeria, read-out: LEPTNO in vitro Growth Inhibition
Ustilago maydis (USTIMA) = test: microbe, parasite or virus in culture; format: cell-based; conditions: Mycosarcoma maydis, read-out: USTIMA in vitro Growth Inhibition
[4] = test system: Phytophthora infestans—PHYTIN; test: whole plant or invertebrate; format: in vivo; conditions: for pest or weed control at 100 ppm: Phytophthora, in Solanum lycopersicum, 24 h, read-out: PHYTIN in vivo 1 Day Protectant
Septoria tritici—SEPTTR = test: Leaf Blotch of Wheat, in vivo whole plant, 24 Hour Protectant; conditions: for pest or weed control at 100 ppm: Zymoseptoria tritici, 24 h, read-out: SEPTTR in vivo 1 Day Protectant
[5] = test system: Phytophthora infestans (PHYTIN); test: microbe, parasite or virus in culture; format: cell-based; conditions: Phytophthora infestans, read-out: PHYTIN in vitro Growth Inhibition
[6] = test system: Rhizoctonia solani (RHIZSO); test: microbe, parasite or virus in culture; format: cell-based; conditions: Rhizoctonia solani, read-out: RHIZSO in vitro Growth Inhibition
[7] = test system: Magnaporthe grisea (Pyricularia oryzae—PYRIOR); test: microbe, parasite or virus in culture; format: cell-based; conditions: Pyricularia oryzae, read-out: PYRIOR in vitro Growth Inhibition
[8] = test system: Puccinia recondita—PUCCRT; test: Brown Rust of Wheat, in vivo whole plant, 24 Hour Protectant; conditions: Puccinia, read-out: PUCCRT in vivo 1 Day Protectant
[9] = 100 ppm spray, 24 hour protectant, wheat, control of fungal infection vs untreated plants
[10] = 100 ppm spray, wheat, 24 hour protectant, control of fungal infection vs untreated plants
[11] = wheat plants sprayed at 100 ppm, inoculated after 24 hours, control of fungal infection vs untreated plants
[12] = 100 ppm spray, wheat, 24 hour protectant, % control of fungal infection vs untreated plants

Compound	inhibition at 25 ppm ([1]; 25 ppm in growth medium) [%]	pest or weed control at 100 ppm [2, 9] [%]	pest or weed control at 100 ppm (Erysiphe graminis—ERYSGT; [9]) [%]	inhibition at 25 ppm ([3]; 25 ppm in growth medium) [%]	melting point	inhibition at 25 ppm (Ustilago maydis (USTIMA)) [%]	pest or weed control at 100 ppm [4] [%]	pest or weed control at 100 ppm (Septoria tritici—SEPTTR; [9]) [%]	inhibition at 25 ppm [5] [%]	inhibition at 25 ppm [6] [%]	inhibition at 25 ppm [7] [%]	pest or weed control at 100 ppm [8, 9] [%]	inhibition at 25 ppm ([1]; 25 ppm in the growth medium) [%]	pest or weed control at 100 ppm [2, 11] [%]	pest or weed control at 100 ppm (Erysiphe graminis—ERYSGT; [11]) [%]	inhibition at 25 ppm ([3]; 25 ppm in the growth medium) [%]	pest or weed control at 100 ppm (Septoria tritici—SEPTTR; [11]) [%]	pest or weed control at 100 ppm [8, 11] [%]	also measured
O=C(NCc1ccc(Cl)cc1)c1ncccc1O [Compound 220]	> 80	< 25	< 25	> 80	95 to 97 °C	> 80	25 to 74	< 25	> 80	> 80	> 80	< 25							
COc1ccnc(C(=O)N[C@H]2CC(=O)OCC(NC(=O)OC(C)(C)C)COC2=O)c1O (stereo partly drawn) [Compound 379]	< 80			< 80	118 to 121 °C	< 80	< 25		< 80	< 80	< 80								pest or weed control at 100 ppm [2, 10]: 25 to 74%; pest or weed control at 100 ppm (Erysiphe graminis—ERYSGT; [10]): 25 to 74%; pest or weed control at 100 ppm (Septoria tritici—SEPTTR; [10]): 25 to 74%; pest or weed control at 100 ppm [8, 10]: 25 to 74%
CC(=O)Oc1cccnc1C(=O)NC1CCC(OC(C)=O)CC1 (stereo not drawn) [Compound 564]					158 to 161 °C	< 80	< 25		< 80	< 80	< 80		< 80	25 to 74	< 25	< 80	< 25	< 25	
COc1ccnc(C(=O)Nc2ccc(Oc3cccc(C(F)(F)F)c3)nc2)c1O [Compound 471]					193 to 195 °C	< 80	< 25		< 80	< 80	< 80		< 80	25 to 74	< 25	> 80	25 to 74	25 to 74	
COc1ccnc(C(=O)Nc2ccc(Sc3cccc(C(F)(F)F)c3)cc2)c1OC(C)=O [Compound 711]	> 80			> 80	134 to 136 °C	< 80	< 25		< 80	< 80	> 80								pest or weed control at 100 ppm [2, 12]: 25 to 74%; pest or weed control at 100 ppm (Erysiphe graminis—ERYSGT; [12]): < 25%; SEPTTR in vivo 1 Day Protectant (Septoria tritici—SEPTTR; [12]): + +; pest or weed control at 100 ppm [8, 12]: < 25%
CSc1nnc(C(=O)NC2CC(C)(C)CC(C)(C)C2)c(O)n1 [Compound 545]					265 to 268 °C	< 80	25 to 74		> 80	< 80	< 80		< 80	25 to 74	< 25	< 80	25 to 74	25 to 74	
COc1ccnc(C(=O)NC2CCN(Cc3ccccc3)CC2)c1O.O=C(O)/C=C\C(=O)O [Compound 305]					145 to 147 °C	< 80			< 80	< 80	< 80								inhibition at 25 ppm [1]: < 80%; pest or weed control at 100 ppm ([2]; 24 h): < 25%; pest or weed control at 100 ppm (Erysiphe graminis—ERYSGT; 24 h): < 25%; inhibition at 25 ppm [3]: < 80%; PHYTIN in vivo 1 Day Protectant ([4]; 100 ppm spray, 24 hour protectant, tomato, control of fungal infection vs untreated plants): + +; pest or weed control at 100 ppm (Septoria tritici—SEPTTR): < 25%; pest or weed control at 100 ppm ([8]; 24 h): < 25%
COc1ccnc(C(=O)NC2COC(=O)[C@H]3CCCC[C@@H]3C(=O)OC2)c1O [Compound 377]	< 80			< 80	234 to 235 °C	< 80	< 25		> 80	< 80	< 80								pest or weed control at 100 ppm [2, 10]: 25 to 74%; pest or weed control at 100 ppm (Erysiphe graminis—ERYSGT; [10]): < 25%; pest or weed control at 100 ppm (Septoria tritici—SEPTTR; [10]): < 25%; pest or weed control at 100 ppm [8, 10]: < 25%
Cc1ccnc(C(=O)NC2CC(C)(C)CC(C)(C)C2)c1O [Compound 236]	< 80	< 25	< 25	> 80	42 to 45 °C	< 80	< 25	< 25	< 80	< 80	< 80	< 25							
COc1ccnc(C(=O)N[C@H]2CC[C@@H](Oc3ccc(C(F)(F)F)cc3)CC2)c1O [Compound 271]	> 80	25 to 74	< 25	> 80	181 to 183 °C (dec.)	> 80	25 to 74	25 to 74	> 80	> 80	> 80	< 25							
